Each structure is given as a SMILES string.

`CC(=O)c1cccc(Oc2ncccc2C(=O)NCc2ccc(C(C)(C)O)cc2Cl)c1` [Example 235, 2-(3-Acetyl-phenoxy)-N-[2-chloro-4-(1-hydroxy-1-methyl-ethyl)-benzyl]-nicotinamide] displayed a melting point of 102 to 104 °C. For `CC(=O)c1ccc(Oc2ncccc2C(=O)NCc2ccc(C(C)(C)O)cc2)cc1` [Example 236, 2-(4-Acetyl-phenoxy)-N-[4-(1-hydroxy-1-methyl-ethyl)-benzyl]-nicotinamide] the value was 95 to 97 °C; for `CC(=O)c1cccc(Oc2ncccc2C(=O)NCc2ccc(C(C)(C)O)cc2F)c1` [Example 237, 2-(3-Acetyl-phenoxy)-N-[2-fluoro-4-(1-hydroxy-1-methyl-ethyl)-benzyl]nicotinamide], 68 to 70 °C.

Regarding `CC(C)(O)c1ccc(CNC(=O)c2cccnc2Oc2cc(F)cc(F)c2)cc1` [Example 238, 2-(3,5-Difluoro-phenoxy)-N-[4-(1-hydroxy-1-methyl-ethyl)-benzyl]-nicotinamide], the melting point was in the range of 68 to 70 °C. For `CC(C)(O)[C@H]1CC[C@H](CNC(=O)c2cccnc2Oc2ccc(F)cc2F)CC1` [Example 239, trans-2-(2,4-Difluoro-phenoxy)-N-[4-(1-hydroxy-1-methyl-ethyl)-cyclohexylmethyl]-nicotinamide] the value was 92 to 94 °C.

With `CC(C)(O)[C@H]1CC[C@H](CNC(=O)c2cccnc2Oc2ccc(F)c(F)c2)CC1` [Example 240, trans-2-(3,4-Difluoro-phenoxy)-N-[4-(1-hydroxy-1-methyl-ethyl)-cyclohexylmethyl]-nicotinamide], the melting point lay within 80 to 82 °C. `CC(=O)c1cccc(Oc2ncccc2C(=O)NCC2CCC(C(C)(C)O)CC2)c1` (stereo not shown) [Example 242, 2-(3-Acetyl-phenoxy)-N-[4-(1-hydroxy-1-methyl-ethyl)-cyclohexylmethyl]-nicotinamide] registered a melting point of 105 to 107 °C. For `CC(C)(O)c1ccc(CNC(=O)c2cccnc2Oc2ccc(F)c(C#N)c2)cc1` [Example 243, 2-(3-Cyano-4-fluoro-phenoxy)-N-[4-(1-hydroxy-1-methyl-ethyl)-benzyl]-nicotinamide] the value was 147 to 149 °C. For `CC(C)(O)c1ccc(CNC(=O)c2cccnc2Oc2ccc(F)c(C#N)c2)c(Cl)c1` [Example 244, N-[2-Chloro-4-(1-hydroxy-1-methyl-ethyl)-benzyl]-2-(3-cyano-4-fluoro-phenoxy)-nicotinamide] the value was 151 to 153 °C; for `CC(C)(O)C1CCC(CNC(=O)c2cccnc2Oc2ccc(F)cc2)CC1` (stereo not shown) [Example 245, 2-(4-Fluoro-phenoxy)-N-[4-(1-hydroxy-1-methyl-ethyl)-cyclohexylmethyl]-nicotinamide], 78 to 80 °C; for `O=C(NCc1ccccc1Cl)c1cccnc1OCc1cccnc1` [Example 246, N-(2-Chloro-benzyl)-2-(pyridin-3-ylmethoxy)-nicotinamide], 91 to 93 °C. For `CN(C)c1ccc(CNC(=O)c2cccnc2Oc2ccc(F)cc2)cc1` [Example 247, N-[[4-(Dimethylamino)phenyl]methyl]-2-(4-fluorophenoxy)-3-pyridinecarboxamide] the value was 99.5 to 101.5 °C; for `COc1ccc(CCC(=O)c2cccnc2Oc2ccc(F)cc2)cc1` [Example 249, 1-[2-(4-Fluorophenoxy)-3-pyridinyl]-3-(4-methoxyphenyl)-1-propanone], 73 to 74 °C. Take `O=C(CCc1ccc(C(F)(F)F)cc1)c1cccnc1Oc1ccc(F)cc1` [Example 252, 1-[2-(4-Fluoro-phenoxy)-pyridin-3-yl]-3-(4-trifluoromethyl-phenyl)-propan-1-one]: the melting point fell in the range of 94 to 95 °C. For `O=C(CCc1ccc(OC(F)(F)F)cc1)c1cccnc1Oc1ccc(F)cc1` [Example 253, 1-[2-(4-Fluoro-phenoxy)-pyridin-3-yl]-3-(4-trifluoromethoxy-phenyl)-propan-1-one] the value was 79 to 81 °C; for `O=C(CCc1cc(F)cc(F)c1)c1cccnc1Oc1ccc(F)cc1` [Example 254, 3-(3,5-Difluoro-phenyl)-1-[2-(4-fluoro-phenoxy)-pyridin-3-yl]-propan-1-one], 69 to 70 °C. For `O=C(CCc1c(F)cc(F)cc1F)c1cccnc1Oc1ccc(F)cc1` [Example 255, 1-[2-(4-Fluoro-phenoxy)-pyridin-3-yl]-3-(2,4,6-trifluoro-phenyl)-propan-1-one] the value was 84 to 85 °C; for `O=C(CCc1ccccc1)c1cccnc1Oc1ccc(F)cc1` [Example 256, 1-[2-(4-Fluorophenoxy)-3-pyridinyl]-3-phenyl-1-propanone], 82 to 83 °C; for `O=C(CCc1ccccc1)c1cccnc1Oc1cccnc1` [Example 257, 3-Phenyl-1-[2-(pyridin-3-yloxy)-pyridin-3-yl]-propan-1-one], 45 to 46 °C.

Regarding `O=C(CCc1ccc(F)cc1)c1cccnc1Oc1cccnc1` [Example 258, 3-(4-Fluoro-phenyl)-1-[2-(pyridin-3-yloxy)-pyridin-3-yl]-propan-1-one], the melting point was in the range of 62 to 64 °C. With `O=C(Cc1ccccc1)c1cccnc1Oc1ccc(F)cc1` [Example 264, 1-[2-(4-Fluoro-phenoxy)-pyridin-3-yl]-2-phenyl-ethanone], the melting point fell in the range of 81 to 82 °C. Consider `O=C(COc1ccccc1)c1cccnc1Oc1ccc(F)cc1` [Example 265, 1-[2-(4-Fluoro-phenoxy)-pyridin-3-yl]-2-phenoxy-ethanone], for which the melting point was 105.5 to 106.5 °C. For `O=C(COc1ccccc1Cl)c1cccnc1Oc1ccc(F)cc1` [Example 266, 2-(2-Chloro-phenoxy)-1-[2-(4-fluoro-phenoxy)-pyridin-3-yl]-ethanone] the value was 92 to 93 °C; for `O=C(c1cc2ccccc2[nH]1)c1cccnc1Oc1ccc(F)cc1` [Example 269, [2-(4-Fluoro-phenoxy)-pyridin-3-yl]-(1H-indol-2-yl)-methanone], 169 to 170 °C; for `CN(CC(=O)c1cccnc1Oc1ccc(F)cc1)c1ccccc1` [Example 270, 1-[2-(4-Fluoro-phenoxy)-pyridin-3-yl]-2-(methyl-phenyl-amino)-ethanone], 126 to 128 °C.

For the molecule `OC(CCc1c(F)cc(F)cc1F)c1cccnc1Oc1ccc(F)cc1` (stereo not shown) [Example 274, 1-[2-(4-Fluoro-phenoxy)-pyridin-3-yl]-3-(2,4,6-trifluoro-phenyl)-propan-1-ol], the melting point was in the range of 90 to 91 °C. For `COc1cccc(Oc2ncccc2C(=O)NCc2ccccc2Cl)c1` [Example 283, N-(2-Chloro-benzyl)-2-(3-methoxy-phenoxy)-nicotinamide] the value was 71 to 74 °C; for `CC(C)(O)c1ccc(CNC(=O)c2cccnc2Oc2cccc3c2CCC3=O)cc1` [Example 284, N-[4-(1-Hydroxy-1-methyl-ethyl)-benzyl]-2-(1-oxo-indan-4-yloxy)-nicotinamide], 145 to 147 °C.

As for `CC(=O)c1ccc(CNC(=O)c2cccnc2Oc2ccc(F)cc2)cc1` [Example 285, N-[4-Acetyl-benzyl)-2-(4-fluoro-phenoxy)-nicotinamide], the melting point was in the range of 106 to 108 °C.

Consider `O=C1CCC(CNC(=O)c2cccnc2Oc2ccc(F)cc2)CC1` [Example 286, 2-(4-Fluoro-phenoxy)-N-(4-oxo-cyclohexylmethyl)-nicotinamide], for which the melting point was 157 to 159 °C. For `O=C(NCC1CCC(O)CC1)c1cccnc1Oc1ccc(F)cc1` (stereo not shown) [Example 288, 2-(4-Fluoro-phenoxy)-N-(4-hydroxy-cyclohexylmethyl)-nicotinamide] the value was 110 to 112 °C; for `NC(=O)c1cccc(Oc2ncccc2C(=O)NCc2ccccc2Cl)c1` [Example 289, 2-(3-Carbamoyl-phenoxy)-N-(2-chloro-benzyl)-nicotinamide], 153 to 155 °C.

Take `CC(C)(O)c1ccc(CNC(=O)c2cccnc2Oc2ccc3c(c2)OCO3)cc1` [Example 293, 2-(Benzo[1,3]dioxol-5-yloxy)-N-[4-(1-hydroxy-1-methyl-ethyl)-benzyl]-nicotinamide]: the melting point lay within 118 to 120 °C. For `CCOC(=O)C1CCC(CNC(=O)c2cccnc2Oc2cccc(C(N)=O)c2)CC1` (stereo not shown) [Example 295, 4-({[2-(3-Carbamoyl-phenoxy)-pyridine-3-carbonyl]-amino}-methyl)-cyclohexanecarboxylic acid ethyl ester] the value was 160 to 162 °C; for `CC(C)(O)c1ccc(CNC(=O)c2cccnc2Oc2ccc3ncsc3c2)cc1` [Example 301, 2-(Benzothiazol-6-yloxy)-N-(4-(1-hydroxy-1-methyl-ethyl)-benzyl)-nicotinamide], 195 to 197 °C; for `CC(C)(O)c1ccc(CNC(=O)c2cccnc2Oc2ccc3ncoc3c2)cc1` [Example 302, 2-(Benzooxazol-6-yloxy)-N-(4-(1-hydroxy-1-methyl-ethyl)-benzyl)-nicotinamide], 92 to 94 °C.

`CC(=O)c1cc(Cl)cc(Oc2ncccc2C(=O)NCc2ccc(C(C)(C)O)cc2)c1` [Example 305, 2-(3-Acetyl-5-chloro-phenoxy)-N-(4-(1-Hydroxy-1-methyl-ethyl)-benzyl)-nicotinamide] yielded a melting point of 110 to 112 °C. For `CC(=O)c1cccc(Oc2ncccc2C(=O)NCc2ccc([C@H](C)O)cc2)c1` [Example 306, (S)-(−)-2-(3-Acetyl-phenoxy)-N-(4-(1-hydroxy-ethyl)-benzyl)-nicotinamide], the melting point was 102 to 104 °C. `CC(=O)c1cccc(Oc2ncccc2C(=O)NCc2ccc([C@@H](C)O)cc2)c1` [Example 307, (R)-(+)-2-(3-Acetyl-phenoxy)-N-(4-(1-hydroxy-ethyl)-benzyl)-nicotinamide]: the melting point is 104 to 106 °C. `CC(=O)c1cc(Cl)cc(Oc2ncccc2C(=O)NC[C@H]2CC[C@H](C(C)(C)O)CC2)c1` [Example 308, 2-(3-Acetyl-5-chloro-phenoxy)-N-(trans-4-(1-hydroxy-1-methyl-ethyl)-cyclohexylmethyl)-nicotinamide] gave a melting point of 133 to 135 °C.

The term melting point denotes the temperature of the solid-liquid transition.
